This note sets out measurements from ChEMBL document CHEMBL2311308, “From partial to full agonism: identification of a novel 2,4,5,6-tetrahydropyrrolo[3,4-c]pyrazole as a full agonist of the human GPR119 receptor” (Bioorg Med Chem Lett, 2013).

A short description of series [1]: Intrinsic clearance in human liver microsomes. As to conditions: read-out: CLH. It counts as ADME, Microsome.
Series [2] addresses T1, Glucose-dependent insulinotropic receptor (Homo sapiens) (UniProt Q8TDV5).
T1 sequence (whole entry): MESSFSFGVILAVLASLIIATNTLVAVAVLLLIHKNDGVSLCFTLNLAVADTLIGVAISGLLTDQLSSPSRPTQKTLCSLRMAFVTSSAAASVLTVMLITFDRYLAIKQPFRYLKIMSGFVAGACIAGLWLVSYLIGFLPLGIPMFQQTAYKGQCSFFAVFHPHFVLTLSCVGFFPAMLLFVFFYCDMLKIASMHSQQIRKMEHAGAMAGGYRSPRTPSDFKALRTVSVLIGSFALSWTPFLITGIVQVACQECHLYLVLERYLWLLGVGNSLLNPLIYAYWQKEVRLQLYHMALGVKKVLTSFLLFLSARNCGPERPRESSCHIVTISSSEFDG
Put plainly: Intrinsic activity at human recombinant GPR119 expressed in HEK293 cells co-expressing CRE beta-lactamase assessed as cAMP accumulation at 10 uM by HTRF assay relative to control. It counts as functional, cell-based. (Cyclic AMP is a second messenger, typically raised through Gs and lowered through Gi signalling.)

A short description of the next series: physchem. To be noted: buffer, pH 7.4.
Series [3] concerns the target T2, Glucose-dependent insulinotropic receptor (Homo sapiens, UniProt Q8TDV5).
T2 sequence (Q8TDV5 whole entry): T1 sequence (whole entry)
Nature of the series: Agonist activity at human GPR119 expressed in HEK293 cells co-expressing CRE beta-lactamase assessed as cAMP accumulation by HTRF assay. It counts as functional, cell-based.

Broadly, the logD is the decadic logarithm of the distribution of all forms, ionised or not, between an organic phase and buffer at a given pH. High values mean higher lipophilicity, low ones lower lipophilicity. Usually EC50 stands for the concentration at which the effect is half-maximal. With `CCc1cnc(N2CCC([N+]3([O-])Cc4cn(-c5ccc(S(C)(=O)=O)cc5F)nc4C3)CC2)nc1` (stereo unspecified), in series [1], the microsomal CLint is 9.8 µL/min/mg. Besides, the Intrinsic activity in series [2] turned out to be 107%. The compound also registered a logD in the series “physchem” of 1.1. In addition, the EC50 in series [3] is 0.498 µM.

In the case of `CS(=O)(=O)c1ccc(NCc2cnn(C3CCN(C(=O)OC4CCC4)CC3)c2)c(F)c1`, the Intrinsic activity in series [2] was found to be 42%. The same compound gave a logD in the series “physchem” of 2.5. Further, the half-maximal effective concentration (EC50) in series [3] was determined as 0.462 µM.

For `CCc1cnc(OC(=O)N2CCC(n3cc(CNc4ccc(S(C)(=O)=O)cc4F)cn3)CC2)nc1`, the microsomal CLint in series [1] was found to be 148 µL/min/mg. Moreover, the Intrinsic activity in series [2] was found to be 43%. The compound further returned a logD in “physchem” of 3. In addition, in series [3], the EC50 was 0.047 µM.

`Cc1nc(S(C)(=O)=O)ccc1NCc1cnn(C2CCN(C(=O)OC(C)C)CC2)c1`: in “physchem”, the logD was found to be 1.6. Also, in series [3], the EC50 is over 10 µM.

With `CC(C)OC(=O)N1CCC(n2cc(CNc3ccc(S(C)(=O)=O)cc3F)cn2)CC1`, the microsomal CLint in series [1] was determined as 9.7 µL/min/mg. The Intrinsic activity in series [2] was found to be 41%. Also, the pH-dependent lipophilicity (logD) in “physchem” turned out to be 2.3. In addition, in series [3], the concentration giving a half-maximal response (EC50) stood at 0.181 µM.

Regarding `CC(C)OC(=O)N1CCC(n2cc3c(n2)CN(c2ccc(S(C)(=O)=O)cc2F)C3)CC1`, in series [1], the microsomal CLint amounted to 36.1 µL/min/mg. In series [2], the Intrinsic activity worked out at 48%. The logD in the series “physchem” worked out at 3.2. For the same compound, in series [3], the EC50 amounted to 0.26 µM.

With `CC(C)COC(=O)N1CCC(n2cc(CNc3ccc(S(C)(=O)=O)cc3F)cn2)CC1`, the Intrinsic activity in series [2] was 24%. Further, in “physchem”, the logD amounted to 2.8. Further, the EC50 in series [3] amounted to 0.24 µM.

As for `CCc1cnc(N2CCC(N3Cc4cn(-c5ccc(S(C)(=O)=O)cc5F)nc4C3)CC2)nc1`, the microsomal CLint in series [1] stood at 23 µL/min/mg. In addition, the Intrinsic activity in series [2] turned out to be 118%. In the series “physchem”, this compound returned a log distribution coefficient (logD) of 2.9. The concentration giving a half-maximal response (EC50) in series [3] is 0.083 µM.

`CC(C)OC(=O)N1CCC(N2Cc3cn(-c4ccc(S(C)(=O)=O)cc4F)nc3C2)CC1`: in series [1], the microsomal CLint was 10.5 µL/min/mg. Moreover, the Intrinsic activity in series [2] is 105%. The EC50 in series [3] came to 0.864 µM.
